Earlier results on 4 compounds are cited in PubChem BioAssay AID1259409 (Chemical Carcinogenesis Research Information System (CCRIS), 2018).

For this data set, the system named is rodent chemically induced tumor inhibition, incidence and multiplicity. Kind of data set: CCRIS tumor inhibitor studies.

Turning to `Cc1[nH]cnc1CSCCN=C(NC#N)N(C)N=O`, the “tumour outcome (control, treated, inhibition, significance)” value was 24/30 (80%), 18/25 (72%), 10%, not calculated (Carcinogen: 7,12-DIMETHYLBENZ[A]ANTHRACENE, 57-97-6, Dose [Inhibitor]: 1 G/L IN DRINKING WATER AD LIBITUM BEGINNING 1 WK POST PROMOTER DOSE FOR DURATION OF STUDY (STUDY DURATION: 52 WK), Route [Inhibitor]: ORAL, Species: MOUSE, Strain/Sex: SENCAR/FEMALE, Target Tissue: Type of Lesion: SKIN: CARCINOMA, Dose [Carcinogen]: 120 UG IN 0.2 ML ACETONE ONCE, Promoter: 12-O-TETRADECANOYLPHORBOL-13-ACETATE, 16561-29-8); 16/30 (53%), 8/25 (32%), 40%, p<0.05 (Carcinogen: 7,12-DIMETHYLBENZ[A]ANTHRACENE, 57-97-6, Dose [Inhibitor]: 1 G/L IN DRINKING WATER AD LIBITUM BEGINNING 1 WK POST PROMOTER DOSE FOR DURATION OF STUDY (STUDY DURATION: 52 WK), Route [Inhibitor]: ORAL, Species: MOUSE, Strain/Sex: SENCAR/FEMALE, Target Tissue: Type of Lesion: SKIN: KERATOACANTHOMA, Dose [Carcinogen]: 120 UG IN 0.2 ML ACETONE ONCE, Promoter: 12-O-TETRADECANOYLPHORBOL-13-ACETATE, 16561-29-8); 24/30 (80%), 23/30 (77%), 4%, not calculated (Carcinogen: 7,12-DIMETHYLBENZ[A]ANTHRACENE, 57-97-6, Dose [Inhibitor]: 1 MG/WK BEGINNING 1 WK POST FIRST PROMOTER DOSE FOR DURATION OF STUDY (STUDY DURATION: 52 WK), Route [Inhibitor]: DERMAL, Species: MOUSE, Strain/Sex: SENCAR/FEMALE, Target Tissue: Type of Lesion: SKIN: CARCINOMA, Dose [Carcinogen]: 120 UG IN 0.2 ML ACETONE ONCE, Promoter: 12-O-TETRADECANOYLPHORBOL-13-ACETATE, 16561-29-8); 16/30 (53%), 15/30 (50%), 6%, not calculated (Carcinogen: 7,12-DIMETHYLBENZ[A]ANTHRACENE, 57-97-6, Dose [Inhibitor]: 1 MG/WK BEGINNING 1 WK POST FIRST PROMOTER DOSE FOR DURATION OF STUDY (STUDY DURATION: 52 WK), Route [Inhibitor]: DERMAL, Species: MOUSE, Strain/Sex: SENCAR/FEMALE, Target Tissue: Type of Lesion: SKIN: KERATOACANTHOMA, Dose [Carcinogen]: 120 UG IN 0.2 ML ACETONE ONCE, Promoter: 12-O-TETRADECANOYLPHORBOL-13-ACETATE, 16561-29-8); 11/27 (41%), 13/23 (56%), -37%, not calculated (Carcinogen: 7,12-DIMETHYLBENZ[A]ANTHRACENE, 57-97-6, Dose [Inhibitor]: 1130 PPM IN DRINKING WATER BEGINNING 1 WK POST LAST CARCINOGEN DOSE (STUDY DURATION: 14 MO), Route [Inhibitor]: ORAL, Species: MOUSE, Strain/Sex: B6D2F1/FEMALE, Target Tissue: Type of Lesion: LUNG: TUMOR, Dose [Carcinogen]: 1 MG IN OLIVE OIL 1/WK FOR 4 WK, Promoter: NONE USED); 12/29 (41%), 12/28 (43%), -4%, not calculated (Carcinogen: 7,12-DIMETHYLBENZ[A]ANTHRACENE, 57-97-6, Dose [Inhibitor]: 1130 PPM IN DRINKING WATER BEGINNING 1 WK POST LAST CARCINOGEN DOSE (STUDY DURATION: 14 MO), Route [Inhibitor]: ORAL, Species: MOUSE, Strain/Sex: B6D2F1/FEMALE, Target Tissue: Type of Lesion: LYMPHOID TISSUE: NEOPLASMS, Dose [Carcinogen]: 1 MG IN OLIVE OIL 1/WK FOR 4 WK, Promoter: NONE USE). Also, the “tumour outcome (control, treated, inhibition, significance)” value reads like this: (Carcinogen: 7,12-DIMETHYLBENZ[A]ANTHRACENE, 57-97-6, Dose [Inhibitor]: 1130 PPM IN DRINKING WATER BEGINNING 1 WK POST LAST CARCINOGEN DOSE (STUDY DURATION: 14 MO), Route [Inhibitor]: ORAL, Species: MOUSE, Strain/Sex: B6D2F1/FEMALE, Target Tissue: Type of Lesion: MAMMARY GLAND: TUMOR, Dose [Carcinogen]: 1 MG IN OLIVE OIL 1/WK FOR 4 WK, Promoter: NONE USED) 7/29 (24%), 7/28 (25%), -4%, not calculated; (Carcinogen: URETHANE, 51-79-6, Dose [Inhibitor]: 1000 PPM IN DRINKING WATER BEGINNING 10 WK POST LAST CARCINOGEN DOSE (STUDY DURATION: 14 MO), Route [Inhibitor]: ORAL, Species: MOUSE, Strain/Sex: BALB/MALE, Target Tissue: Type of Lesion: LUNG: TUMOR, Dose [Carcinogen]: 1 G/KG 1/WK FOR 2 WK, Promoter: NONE USED) 20/20 (100%), 17/17 (100%), 0%, not calculated; (Carcinogen: URETHANE, 51-79-6, Dose [Inhibitor]: 1800 PPM IN DRINKING WATER BEGINNING 10 WK POST LAST CARCINOGEN DOSE (STUDY DURATION: 14 MO), Route [Inhibitor]: ORAL, Species: MOUSE, Strain/Sex: BALB/MALE, Target Tissue: Type of Lesion: LUNG: TUMOR, Dose [Carcinogen]: 1 G/KG 1/WK FOR 2 WK, Promoter: NONE USED) 20/20 (100%), 17/17 (100%), 0%, not calculated.

Consider `ClC1C(Cl)C(Cl)C(Cl)C(Cl)C1Cl` (centres undefined), for which the “tumour outcome (control, treated, inhibition, significance)” value was 15/15 (100%), 15/15 (100%), 0%, not significant (Carcinogen: DIETHYLNITROSAMINE, 55-18-5, Dose [Inhibitor]: 0, 250 PPM IN DIET FOR 24 WK BEGINNING AT 28 D OF AGE (STUDY DURATION: 26 WK), Route [Inhibitor]: ORAL, Species: MOUSE, Strain/Sex: B6C3F1/MALE, Target Tissue: Type of Lesion: LIVER: ADENOMA, Dose [Carcinogen]: 5 UG/G BW IN 0.1 ML SALINE ONCE AT 15 D OF AGE, Promoter: NONE USED); 6/19 (32%), 1/20 (5%), 84%, not calculated (Dose [Inhibitor]: 0, 100 PPM IN DIET ADMINISTERED CONCURRENTLY WITH CARCINOGEN FOR 1 WK (STUDY DURATION: 82 WK), Route [Inhibitor]: ORAL, Species: RAT, Strain/Sex: BUFFALO/FEMALE, Target Tissue: Type of Lesion: LIVER: TUMOR, Dose [Carcinogen]: 1 PPM IN DIET FOR 1 WK, Promoter: NONE USED); 6/19 (32%), 0/23 (0%), 100%, not calculated (Dose [Inhibitor]: 0, 100 PPM IN DIET ADMINISTERED CONCURRENTLY WITH CARCINOGEN FOR 3 WK (STUDY DURATION: 82 WK), Route [Inhibitor]: ORAL, Species: RAT, Strain/Sex: BUFFALO/FEMALE, Target Tissue: Type of Lesion: LIVER: TUMOR, Dose [Carcinogen]: 1 PPM IN DIET FOR 3 WK, Promoter: NONE USED); 6/19 (32%), 0/17 (0%), 100%, not calculated (Dose [Inhibitor]: 0, 100 PPM IN DIET ADMINISTERED CONCURRENTLY WITH CARCINOGEN FOR 5 WK (STUDY DURATION: 82 WK), Route [Inhibitor]: ORAL, Species: RAT, Strain/Sex: BUFFALO/FEMALE, Target Tissue: Type of Lesion: LIVER: TUMOR, Dose [Carcinogen]: 1 PPM IN DIET FOR 5 WK, Promoter: NONE USED); 6/19 (32%), 0/22 (0%), 100%, not calculated (Dose [Inhibitor]: 0, 100 PPM IN DIET ADMINISTERED CONCURRENTLY WITH CARCINOGEN FOR 10 WK (STUDY DURATION: 82 WK), Route [Inhibitor]: ORAL, Species: RAT, Strain/Sex: BUFFALO/FEMALE, Target Tissue: Type of Lesion: LIVER: TUMOR, Dose [Carcinogen]: 1 PPM IN DIET FOR 10 WK, Promoter: NONE USED); 6/19 (32%), 0/13 (0%), 100%, not calculated (Dose [Inhibitor]: 0, 100 PPM IN DIET ADMINISTERED CONCURRENTLY WITH CARCINOGEN FOR 15 WK (STUDY DURATION: 82 WK), Route [Inhibitor]: ORAL, Species: RAT, Strain/Sex: BUFFALO/FEMALE, Target Tissue: Type of Lesion: LIVER: TUMOR, Dose [Carcinogen]: 1 PPM IN DIET FOR 15 WK, Promoter: NONE USED).

Turning to `C=CCSC[C@H](N)C(=O)O`, the outcome (Carcinogen: 7,12-DIMETHYLBENZ[A]ANTHRACENE (57-97-6), Dose [Inhibitor]: 0, 200 MG/KG ON ALTERNATE DAYS FOR 14 WK (STUDY DURATION: 14 WK), Route [Inhibitor]: ORAL, Species: HAMSTER, Strain/Sex: SYRIAN/MALE, Target Tissue: Type of Lesion: BUCCAL POUCH: SQUAMOUS CELL CARCINOMA, Dose [Carcinogen]: 0.5% IN LIQUID PARAFFIN TO RIGHT BUCCAL POUCH, ALTERNATE DAYS FOR 14 WK, Promoter: NONE USED) was 10, 0, 100%, not calculated. Also, the “tumour outcome (control, treated, inhibition, significance)” value is on record as 6/6 (100%), 0/6 (0%), 100%, not determined (Carcinogen: N-METHYL-N'-NITRO-N-NITROSOGUANIDINE [70-25-7], Dose [Inhibitor]: 200 MG/KG 3X/WK BEGINNING ON DAY 1 (STUDY DURATION: 21 WK), Route [Inhibitor]: GAVAGE, Species: RAT, Strain/Sex: WISTAR/MALE, Target Tissue: Type of Lesion: STOMACH: CARCINOMA, Dose [Carcinogen]: 200 MG/KG BW ONCE ON DAYS 0 AND 14, Promoter: SODIUM CHLORIDE [7647-14-5]) and 81%, 48%, 41%, p<0.05 (Carcinogen: N-METHYL-N-NITROSOUREA, 684-93-5, Dose [Inhibitor]: 0, 57 UMOL/KG DIET FOR 25 WK BEGINNING 2 WK PRIOR TO CARCINOGEN DOSE (STUDY DURATION: 25 WK), Route [Inhibitor]: ORAL, Species: RAT, Strain/Sex: SPRAGUE-DAWLEY/FEMALE, Target Tissue: Type of Lesion: MAMMARY GLAND: TUMOR, Dose [Carcinogen]: 15 MG/KG BW ONCE, Promoter: NONE USED).

In the case of `COc1c2occc2cc2ccc(=O)oc12`, the outcome (Carcinogen: 4-(N-methyl-N-nitrosamino)-1-(3-pyridyl)-1-butanone, 64091-91-4, Dose [Inhibitor]: 0, 1, 10, 100 ppm in diet for 3 d beginning at 7 wks of age, tumors collected 16 wk after treatment, Route [Inhibitor]: Oral, Species: Mouse, Strain/Sex: A/J/Female, Target Tissue: Type of Lesion: Lung: Adenomas, Dose [Carcinogen]: Single dose of 2 mg 3 days after first inhibitor treatment (Test material solvent: saline), Promoter: None) is recorded as 12/20 (75%), 17/20 (95%), 14/20 (70%), 10/20 (50%), p<0.001.
